Where two headings read alike, the source gives them in different places.
Biological target: T1, HCV polymerase (Hepatitis C virus genotype 1b, UniProt Q9WMX2)
T1 construct: (His)6 (C)
Experiment: biochemical
Conditions: polymerase assay of Biological Example 1

| SMILES | IC50 (read-out: NS5B polymerase IC50) | IC50 (NS5B polymerase IC50 μM) |
| --- | --- | --- |
| CNC(=O)c1c(-c2ccc(C)cc2)oc2nc(N(CCCC3(C(=O)O)CCC3)S(C)(=O)=O)c(C3CC3)cc12 [Example 29.1, 1-{3-[(5-Cyclopropyl-3-methylcarbamoyl-2-p-tolyl-furo[2,3-b]pyridin-6-yl)-methanesulfonyl-amino]-propyl}-cyclobutanecarboxylic acid] | 0.002 µM | – |
| CNC(=O)c1c(-c2ccc(C)cc2)oc2nc(N(CCCCC3(C(=O)O)CCOCC3)S(C)(=O)=O)c(C3CC3)cc12 [Example 29.95, 4-(4-(N-(5-cyclopropyl-3-(methylcarbamoyl)-2-p-tolylfuro[2,3-b]pyridin-6-yl)methylsulfonamido)butyl) tetrahydro-2H-pyran-4-carboxylic acid] | 0.003 µM | – |
| CCc1cc2c(C(=O)NC)c(-c3ccc(F)cc3)oc2nc1N(CCCCOc1ccccc1OC)S(C)(=O)=O [Example 22.1, 5-ethyl-2-(4-fluorophenyl)-6-(N-(4-(2-methoxyphenoxy)butyl)methylsulfonamido)-N-methylfuro[2,3-b]pyridine-3-carboxamide] | 0.034 µM | – |
| CNC(=O)c1c(-c2ccc(C)cc2)oc2nc(N(CCCCC(=O)NCCCC(=O)O)S(C)(=O)=O)c(C3CC3)cc12 [Example 29.99999, 4-(5-(N-(5-cyclopropyl-3-(methylcarbamoyl)-2-p-tolylfuro[2,3-b]pyridin-6-yl)methylsulfonamido)pentanamido)butanoic acid] | 0.021 µM | – |
| CCc1cc2c(C(=O)NC)c(-c3ccc(F)cc3)oc2nc1N(CCCN1CCN(C)C1=O)S(C)(=O)=O [Example 21.94, 5-ethyl-2-(4-fluorophenyl)-N-methyl-6-(N-(3-(3-methyl-2-oxoimidazolidin-1-yl)propyl)methylsulfonamido)furo[2,3-b]pyridine-3-carboxamide] | 0.077 µM | – |
| CCc1cc2c(C(=O)NC)c(-c3ccc(F)cc3)oc2nc1N(CCCNS(=O)(=O)c1ccccc1)S(C)(=O)=O [23.6] | 0.093 µM | – |
| CCc1cc2c(C(=O)NC)c(-c3ccc(F)cc3)oc2nc1N(CCCNS(C)(=O)=O)S(C)(=O)=O [Example 23.4, 5-ethyl-2-(4-fluorophenyl)-N-methyl-6-(N-(3-(methylsulfonamido)propyl)methylsulfonamido)furo[2,3-b]pyridine-3-carboxamide] | 0.125 µM | – |
| CNC(=O)c1c(-c2ccc(C)cc2)oc2nc(N(CCCCCP(C)(=O)O)S(C)(=O)=O)c(I)cc12 [Example 23.9998, 5-(N-(5-iodo-3-(methylcarbamoyl)-2-p-tolylfuro[2,3-b]pyridin-6-yl)methylsulfonamido)pentyl (methyl)phosphinic acid] | – | 0.011 µM |
| CCc1cc2c(C(=O)NC)c(-c3ccc(F)cc3)oc2nc1N(CCCS(=O)(=O)N1CCOCC1)S(C)(=O)=O [Example 21.98, 5-ethyl-2-(4-fluorophenyl)-N-methyl-6-(N-(3-(morpholinosulfonyl)propyl)methylsulfonamido)furo[2,3-b]pyridine-3-carboxamide] | 0.037 µM | – |
| CNC(=O)c1c(-c2ccc(C)cc2)oc2nc(N(CCCN)S(C)(=O)=O)c(C3CC3)cc12 [Example 23.999995, 6-(N-(3-aminopropyl)methylsulfonamido)-5-cyclopropyl-N-methyl-2-p-tolylfuro[2,3-b]pyridine-3-carboxamide] | 0.014 µM | – |
| CNC(=O)c1c(-c2ccc(F)cc2)oc2nc(N(CCCNS(=O)(=O)c3ccccc3[N+](=O)[O-])S(C)(=O)=O)c(I)cc12 [Example 23.993, 2-(4-fluorophenyl)-5-iodo-N-methyl-6-(N-(3-(2-nitrophenylsulfonamido)propyl)methylsulfonamido) furo[2,3-b]pyridine-3-carboxamide] | 0.125 µM | – |
| CCc1cc2c(C(=O)NC)c(-c3ccc(F)cc3)oc2nc1N(CCCC(C)(C)C(=O)OCC(C)C)S(C)(=O)=O [Example 21.3, isobutyl 5-(N-(5-ethyl-2-(4-fluorophenyl)-3-(methylcarbamoyl)furo[2,3-b]pyridin-6-yl)methylsulfonamido)-2,2-dimethylpentanoate] | 0.134 µM | – |
| CNC(=O)c1c(-c2ccc(C)cc2)oc2nc(N(CCCC3(C(=O)O)COC3)S(C)(=O)=O)c(C3CC3)cc12 [Example 29.96, 3-(3-(N-(5-cyclopropyl-3-(methylcarbamoyl)-2-p-tolylfuro[2,3-b]pyridin-6-yl)methylsulfonamido)propyl) oxetane-3-carboxylic acid] | 0.005 µM | – |
| CNC(=O)c1c(-c2ccc(F)cc2)oc2nc(N(CCCCC(=O)O)S(C)(=O)=O)c(C3CC3)cc12 [Example 26.9, 5-(N-(5-cyclopropyl-2-(4-fluorophenyl)-3-(methylcarbamoyl)furo[2,3-b]pyridin-6-yl)methylsulfonamido) pentanoic acid] | 0.003 µM | – |
| CNC(=O)c1c(-c2ccc(F)cc2)oc2nc(N(CCCN3CCNC3=O)S(C)(=O)=O)c(I)cc12 [Example 18.91, 2-(4-fluorophenyl)-5-iodo-N-methyl-6-(N-(3-(2-oxoimidazolidin-1-yl)propyl)methylsulfonamido)furo[2,3-b]pyridine-3-carboxamide] | 0.133 µM | – |
| CNC(=O)c1c(-c2ccc(C)cc2)oc2nc(N(CCCc3nn[nH]n3)S(C)(=O)=O)c(C3CC3)cc12 [Example 29.92, 6-(N-(3-(2H-tetrazol-5-yl)propyl)methylsulfonamido)-5-cyclopropyl-N-methyl-2-p-tolylfuro[2,3-b]pyridine-3-carboxamide] | 0.002 µM | – |
| CNC(=O)c1c(-c2ccc(C)cc2)oc2nc(N(CCCCBr)S(C)(=O)=O)c(C3CC3)cc12 [Example 29.997, 6-(N-(4-bromobutyl)methylsulfonamido)-5-cyclopropyl-N-methyl-2-p-tolylfuro[2,3-b]pyridine-3-carboxamide] | 0.002 µM | – |
| CCc1cc2c(C(=O)NC)c(-c3ccc(F)cc3)oc2nc1N(CC1CCN(C(=O)OC(C)(C)C)CC1)S(C)(=O)=O [Example 21.997, tert-butyl 4-((N-(5-ethyl-2-(4-fluorophenyl)-3-(methylcarbamoyl)furo[2,3-b]pyridin-6-yl)methylsulfonamido)methyl)piperidine-1-carboxylate] | 0.148 µM | – |
| CNC(=O)c1c(-c2ccc(C)cc2)oc2nc(N(CCCCCP(C)(=O)O)S(C)(=O)=O)c(C3CC3)cc12 [Example 23.999991, 5-(N-(5-cyclopropyl-3-(methylcarbamoyl)-2-p-tolylfuro[2,3-b]pyridin-6-yl)methylsulfonamido)pentyl (methyl)phosphinic acid] | – | 0.004 µM |
| CNC(=O)c1c(-c2ccc(F)cc2)oc2nc(N(C)S(C)(=O)=O)c(C(C)=O)cc12 [Example 10, 5-acetyl-2-(4-fluorophenyl)-N-methyl-6-(N-methylmethylsulfonamido)furo[2,3-b]pyridine-3-carboxamide] | 0.467 µM | – |
| CCc1ccc(-c2oc3nc(N(CCCC4(C(=O)O)CCOCC4)S(C)(=O)=O)c(C4CC4)cc3c2C(=O)NC)cc1 [Example 29.7, 4-(3-(N-(5-cyclopropyl-2-(4-ethylphenyl)-3-(methylcarbamoyl)furo[2,3-b]pyridin-6-yl)methylsulfonamido)propyl) tetrahydro-2H-pyran-4-carboxylic acid] | 0.002 µM | – |
| CNC(=O)c1c(-c2ccc(F)cc2)oc2nc(N(CCN(C)S(C)(=O)=O)S(C)(=O)=O)c(I)cc12 [Example 23.996, 2-(4-fluorophenyl)-5-iodo-N-methyl-6-(N-(2-(N-methylmethylsulfonamido)ethyl)methylsulfonamido) furo[2,3-b]pyridine-3-carboxamide] | 0.242 µM | – |
